Molecular target: T1, P-gp (LCC6MDR cells) (Homo sapiens, UniProt P08183)
T1 construct: expressed in transfected cells; host or cells: LCC6MDR (human breast cancer line)
Test: Reversal of P-gp-mediated paclitaxel resistance in LCC6MDR
Format: cell-based
Settings: value without asterisk; read-out: EC50 needed for reversing P-gp-mediated paclitaxel resistance, LCC6MDR

T1 sequence (P08183 whole entry): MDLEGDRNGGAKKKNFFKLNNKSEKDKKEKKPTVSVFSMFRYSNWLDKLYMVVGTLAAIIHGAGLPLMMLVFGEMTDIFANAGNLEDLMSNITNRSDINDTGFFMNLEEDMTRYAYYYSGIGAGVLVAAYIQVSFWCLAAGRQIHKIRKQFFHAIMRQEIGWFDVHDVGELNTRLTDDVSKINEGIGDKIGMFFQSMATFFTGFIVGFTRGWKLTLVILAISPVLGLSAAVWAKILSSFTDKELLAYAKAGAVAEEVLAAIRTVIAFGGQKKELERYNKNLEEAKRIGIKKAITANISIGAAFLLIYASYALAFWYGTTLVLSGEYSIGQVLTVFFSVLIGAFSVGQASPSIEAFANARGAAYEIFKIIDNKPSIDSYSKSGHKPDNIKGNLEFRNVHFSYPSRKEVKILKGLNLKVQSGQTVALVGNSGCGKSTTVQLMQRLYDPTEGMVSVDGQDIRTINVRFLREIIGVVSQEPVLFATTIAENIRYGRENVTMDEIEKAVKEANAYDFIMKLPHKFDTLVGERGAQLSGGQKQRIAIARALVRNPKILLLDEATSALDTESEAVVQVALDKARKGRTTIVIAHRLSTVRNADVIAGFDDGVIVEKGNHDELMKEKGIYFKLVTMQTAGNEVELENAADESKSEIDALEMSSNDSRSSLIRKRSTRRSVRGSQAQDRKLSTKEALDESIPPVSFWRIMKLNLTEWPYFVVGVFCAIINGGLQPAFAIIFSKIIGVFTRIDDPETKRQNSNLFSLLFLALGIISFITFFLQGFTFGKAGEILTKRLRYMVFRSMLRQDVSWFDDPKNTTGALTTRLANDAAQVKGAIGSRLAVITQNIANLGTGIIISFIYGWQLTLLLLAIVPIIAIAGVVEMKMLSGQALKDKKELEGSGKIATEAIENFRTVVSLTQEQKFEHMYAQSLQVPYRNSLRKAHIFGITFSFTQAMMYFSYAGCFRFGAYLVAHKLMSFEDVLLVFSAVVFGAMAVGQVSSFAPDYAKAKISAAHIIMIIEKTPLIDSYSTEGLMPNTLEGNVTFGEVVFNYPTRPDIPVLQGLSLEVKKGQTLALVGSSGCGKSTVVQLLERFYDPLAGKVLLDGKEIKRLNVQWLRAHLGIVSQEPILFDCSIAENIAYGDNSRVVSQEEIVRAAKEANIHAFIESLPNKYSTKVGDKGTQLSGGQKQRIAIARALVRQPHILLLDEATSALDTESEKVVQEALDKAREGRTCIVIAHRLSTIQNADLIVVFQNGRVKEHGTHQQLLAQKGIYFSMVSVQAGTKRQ

COC(=O)c1cccc(COc2c(-c3ccc(OCCOCCn4cc(CN(Cc5ccccc5)Cc5cn(CCOCCOc6ccc(-c7oc8ccccc8c(=O)c7OCc7cccc(C(=O)OC)c7)cc6)nn5)nn4)cc3)oc3ccccc3c2=O)c1 [Ac15(Az8)2]
EC50: > 3 µM
